Patent US20070293445A1, “Stable Elsamitrucin Salts Suitable for Pharmaceutical Formulations” (SPECTRUM PHARMACEUTICALS, INC., priority 2006, published 2007)
Like-named read-outs stand apart in the source and are kept apart here.

Experiments:
[1] = tested on: SK-MES-1 human non-small cell lung carcinoma; experiment: MTT cell growth inhibition, SK-MES-1; type: cell-based; details: 5-10 days incubation
Description: (§1) Elsamitrucin and Elsamitrucin tosylate were tested in vitro using: B16F10 (murine […]), HCT 116 (human colon), HT29 (human colon) and SK-MES-1 (human non-small cell lung carcinoma ). Cell growth inhibition was evaluated in 96-well micro-culture plates with a semi-automated MTT (3-(4,5-dimethylthiazol-2-yl)-2,5-diphenyltetrazolium bromide) assay.
(§2) SK-MES-1 human non-small cell lung carcinoma, B16F10 murine melanoma cells, HCT 116 and HT29 human colon carcinomas (collectively “test cell cultures”) were maintained in buffered RPMI 1640 supplemented with fetal calf serum, antibiotics and other appropriate growth factors such as glutamine. Test cells (1,500-2,000 cells/well) were seeded in a 96-well micro culture plate with a total volume of 100 μL/well. After overnight incubation in a humidified incubator at 37° C. with 5% CO2 and 95% air, elsamitrucin solutions were diluted to various concentrations with RPMI 1640, were added to each well in a 100 μL volume. The elsamitrucin base and the elsamitrucin tosylate solutions (elsamitrucin solutions) were prepared and stored in a −20° C. freezer. The solutions were thawed not more than 10 times for the entire experiment.
(§3) Cell culture plates seeded with test cells and various concentrations of elsamitrucin solutions were placed in a humidified incubator at 37° C., with CO2 and 95% air for 5-10 days. […]

[2] = tested on: B16F10 murine melanoma cells; experiment: MTT cell growth inhibition, B16F10; type: cell-based; details: 5-10 days incubation
Description: as §1, §2, §3

[3] = tested on: HCT 116 human colon carcinoma; experiment: MTT cell growth inhibition, HCT 116; type: cell-based; details: 5-10 days incubation
Description: as §1, §2, §3

[4] = tested on: HT29 human colon carcinoma; experiment: MTT cell growth inhibition, HT29; type: cell-based; details: 5-10 days incubation
Description: as §1, §2, §3

[5] = tested on: MCF7; details: ER+ MCF7; cited from earlier work
[6] = tested on: MDA-MB-231; details: ER− MDA-MB-231; cited from earlier work
[7] = tested on: MCF7DX; details: MCF7DX subline; cited from earlier work
[8] = tested on: clinical breast cancer specimens from untreated patients; details: cited from earlier work
[9] = tested on: patients with refractory/relapsed non-Hodgkin's lymphoma; details: cited from earlier work

Q: Which IC50 [1] does the source give for “benzo(h)(1)benzopyrano(5,4,3-cde)(1)ebnzopyran-5,12-dione,10((2-O-(2-amino-2,6-dideoxy-3-O-methyl-alpha-D-galactopyranosyl)-6-deoxy-3-C-methyl-beta-D-galactopyranosyl)oxy)-6-hydroxy-1-methyl [Elsamitrucin]” here?
A: 0.042 µM

Q: What about the IC50 [2] of the same substance?
A: 0.024 µM

Q: And the IC50 [3]?
A: 0.074 µM

Q: What about the IC50 [4] of the same substance?
A: 0.095 µM

Q: And the IC50 antiproliferative effect [5]?
A: 0.25 micrograms/ml

Q: What about the IC50 antiproliferative effect [6] of the same substance?
A: 0.21 micrograms/ml

Q: And the “cross-resistance to doxorubicin (DX)” value [7]?
A: cross-resistant to DX

Q: And the minimal inhibiting concentration ([8]; ER+ tumors)?
A: 0.1 micrograms/ml

Q: What about the minimal inhibiting concentration ([8]; ER− tumors) of the same substance?
A: 3.5 micrograms/ml

Q: And the elsamitrucin-associated toxicity [9]?
A: relatively mild

Q: What about the myelosuppression [9] of the same substance?
A: did not include myelosuppression
